Data as given in paper PMC6717386, “Aspulvinone O, a natural inhibitor of GOT1 suppresses pancreatic ductal adenocarcinoma cells growth by interfering glutamine metabolism” (Cell Communication and Signaling : CCS, 2019).

Columns and labels:
[1] = target: GOT1 (aspartate transaminase 1, glutamic-oxaloacetic transaminase 1) (Homo sapiens, UniProt P17174); test: microscale thermophoresis with labelled recombinant GOT1; supported by purified enzyme inhibition and kinetics, CETSA and DARTS; format: binding
Sequence of GOT1 (aspartate transaminase 1, glutamic-oxaloacetic transaminase 1) (P17174 2-413): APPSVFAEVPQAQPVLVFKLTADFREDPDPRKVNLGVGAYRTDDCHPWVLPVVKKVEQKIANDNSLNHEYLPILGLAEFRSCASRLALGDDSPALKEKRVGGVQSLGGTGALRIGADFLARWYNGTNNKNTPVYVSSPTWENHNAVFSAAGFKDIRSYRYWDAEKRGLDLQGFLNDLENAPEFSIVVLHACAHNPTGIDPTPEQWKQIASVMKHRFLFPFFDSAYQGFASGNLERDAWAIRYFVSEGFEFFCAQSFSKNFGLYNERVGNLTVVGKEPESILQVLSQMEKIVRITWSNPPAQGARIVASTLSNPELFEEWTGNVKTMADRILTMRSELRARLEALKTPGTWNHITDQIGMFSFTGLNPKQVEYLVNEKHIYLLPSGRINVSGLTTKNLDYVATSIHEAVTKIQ

murine GOT1 = target: T1, murine GOT1 (Mus musculus, UniProt P05201); test: microscale thermophoresis with labelled recombinant GOT1; supported by purified enzyme inhibition; format: binding
T1 construct: recombinant, C-terminal 6 His-tag
T1 sequence (P05201 2-413): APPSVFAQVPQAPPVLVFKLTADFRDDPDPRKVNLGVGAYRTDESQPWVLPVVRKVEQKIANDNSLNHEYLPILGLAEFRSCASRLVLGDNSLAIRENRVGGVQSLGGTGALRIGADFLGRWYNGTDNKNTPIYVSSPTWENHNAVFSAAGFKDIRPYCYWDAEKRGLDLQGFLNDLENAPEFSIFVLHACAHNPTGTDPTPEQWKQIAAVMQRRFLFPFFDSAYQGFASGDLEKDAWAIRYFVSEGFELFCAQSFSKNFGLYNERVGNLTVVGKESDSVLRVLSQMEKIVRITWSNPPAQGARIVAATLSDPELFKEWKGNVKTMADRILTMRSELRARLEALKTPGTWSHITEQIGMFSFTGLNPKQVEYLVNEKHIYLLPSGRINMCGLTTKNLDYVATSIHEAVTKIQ

Question: For `CC(C)=CCc1cc(/C=C2\OC(=O)C(c3cc(CC=C(C)C)c(O)cc3O)=C2O)ccc1O` [AO, 3-[2,4-Dihydroxy-5-(3-methyl-2-buten-1-yl)phenyl]-4-hydroxy-5-[[4-hydroxy-3-(3-methyl-2-buten-1-yl)phenyl]methylene]-2(5H)-furanone], which Kd [1] is on record?
Answer: 3.32 ± 1.18 µM

Question: What about the Kd (murine GOT1) of the same compound?
Answer: 5.42 ± 1.36 µM
